# Source: patent US6476022B1, “Oxathiepino[6,5-b]dihydropyridines, and related compositions and methods” (Ortho-McNeil Pharmaceutical, Inc., priority 1999, dated 2002)
# Key:
# [1] = biological target: T1, calcium channel (3H-nitrendipine binding, heart membranes) (Oryctolagus cuniculus, UniProt P15381); experiment: Assay for inhibition of nitrendipine binding (3H-nitrendipine, rabbit heart membranes)
# T1 construct: from tissue; host or cells: rabbit heart (crude membrane pellet)
# Description: Female, New Zealand white rabbits (1-2 kg) are sacrificed by cervical dislocation, and the heart is immediately removed, cleaned and chopped into small pieces. The tissue is homogenized in 5×volume of 0.05M Hepes buffer, pH 7.4. The homogenate is centrifuged at 4000 g for 10 minutes, and the supernatant is re-centrifuged at 42,000 g for 90 minutes. The resulting membrane pellet is resuspended (0.7 ml/g weight) in 0.05M Hepes, pH 7.4 and stored at […] until used. Each tube of the binding assay contains ^3H-nitrendipine (0.05-0.50 nM), buffer, membranes (0.10 ml ), and test compound in a total volume of 1.0 ml . After 90 minutes at 4° C., the bound nitrendipine is separated from the unbound by filtration on Whatman GF/C filters. After rinsing, the filters are dried and counted in a liquid scintillation counter.
# Non-specifically bound ^3H-nitrendipine (i.e., the amount bound in the presence of excess unlabelled nitrendipine) is subtracted from the total bound to obtain specifically-bound radiolabeled nitrendipine. The amount of specifically-bound nitrendipine in the presence of a test compound is compared to the amount bound in the absence of the compound. A percent displacement (or inhibition) can then be obtained.
# [2] = test system: trachea (trachealis muscle tissue); experiment: Test for inhibition of calcium-dependent smooth muscle contraction (KCl-challenged tracheal rings); format: cell-based; settings: Canis lupus familiaris, 10 min; dog tracheal rings, 50 mM KCl challenge, test compound added for 10 minutes
# Description: The trachea and the aorta from dogs sacrificed by excess KCl injection are stored overnight at 4° C. in oxygenated Krebs-Henseleit buffer. Tracheal rings, one cartilage segment wide (5-10 mm), are cut starting from the bronchial end. Rings of aorta tissue of the same width are also prepared. After cutting the cartilage, the trachealis muscle tissue and the aorta tissue are suspended in oxygenated Krebs-Henseleit buffer at 37° C. in a 25 ml tissue bath. After a 60-minute equilibration period, the tissues are challenged with 10 μM carbachol. After 5 minutes, the tissues are rinsed and allowed to rest 50 minutes. The tissues are then challenged with 50 mM KCl and, after 30 minutes, the contractions are quantitated. The tissues are then rinsed and re-equilibrated for 50 minutes. Test compounds are then added for 10 minutes, and the tissue is rechallenged with 50 mM KCl. After 30 minutes, the contraction is recorded and used to determine the % inhibition of control. The percent inhibition of smooth muscle contraction is calculated as follows from response data before and after drug treatment:
# % inhibition=100−100×peak response after drug treatment/peak response before drug treatment
# [3] = 3H-nitrendipine 0.05-0.50 nM, 90 minutes at 4° C., compounds of Formula I (Table 1)
# [4] = 3H-nitrendipine, compounds of Formula IIa (Table 2)
# T1 sequence (P15381 whole entry, other chains not shown): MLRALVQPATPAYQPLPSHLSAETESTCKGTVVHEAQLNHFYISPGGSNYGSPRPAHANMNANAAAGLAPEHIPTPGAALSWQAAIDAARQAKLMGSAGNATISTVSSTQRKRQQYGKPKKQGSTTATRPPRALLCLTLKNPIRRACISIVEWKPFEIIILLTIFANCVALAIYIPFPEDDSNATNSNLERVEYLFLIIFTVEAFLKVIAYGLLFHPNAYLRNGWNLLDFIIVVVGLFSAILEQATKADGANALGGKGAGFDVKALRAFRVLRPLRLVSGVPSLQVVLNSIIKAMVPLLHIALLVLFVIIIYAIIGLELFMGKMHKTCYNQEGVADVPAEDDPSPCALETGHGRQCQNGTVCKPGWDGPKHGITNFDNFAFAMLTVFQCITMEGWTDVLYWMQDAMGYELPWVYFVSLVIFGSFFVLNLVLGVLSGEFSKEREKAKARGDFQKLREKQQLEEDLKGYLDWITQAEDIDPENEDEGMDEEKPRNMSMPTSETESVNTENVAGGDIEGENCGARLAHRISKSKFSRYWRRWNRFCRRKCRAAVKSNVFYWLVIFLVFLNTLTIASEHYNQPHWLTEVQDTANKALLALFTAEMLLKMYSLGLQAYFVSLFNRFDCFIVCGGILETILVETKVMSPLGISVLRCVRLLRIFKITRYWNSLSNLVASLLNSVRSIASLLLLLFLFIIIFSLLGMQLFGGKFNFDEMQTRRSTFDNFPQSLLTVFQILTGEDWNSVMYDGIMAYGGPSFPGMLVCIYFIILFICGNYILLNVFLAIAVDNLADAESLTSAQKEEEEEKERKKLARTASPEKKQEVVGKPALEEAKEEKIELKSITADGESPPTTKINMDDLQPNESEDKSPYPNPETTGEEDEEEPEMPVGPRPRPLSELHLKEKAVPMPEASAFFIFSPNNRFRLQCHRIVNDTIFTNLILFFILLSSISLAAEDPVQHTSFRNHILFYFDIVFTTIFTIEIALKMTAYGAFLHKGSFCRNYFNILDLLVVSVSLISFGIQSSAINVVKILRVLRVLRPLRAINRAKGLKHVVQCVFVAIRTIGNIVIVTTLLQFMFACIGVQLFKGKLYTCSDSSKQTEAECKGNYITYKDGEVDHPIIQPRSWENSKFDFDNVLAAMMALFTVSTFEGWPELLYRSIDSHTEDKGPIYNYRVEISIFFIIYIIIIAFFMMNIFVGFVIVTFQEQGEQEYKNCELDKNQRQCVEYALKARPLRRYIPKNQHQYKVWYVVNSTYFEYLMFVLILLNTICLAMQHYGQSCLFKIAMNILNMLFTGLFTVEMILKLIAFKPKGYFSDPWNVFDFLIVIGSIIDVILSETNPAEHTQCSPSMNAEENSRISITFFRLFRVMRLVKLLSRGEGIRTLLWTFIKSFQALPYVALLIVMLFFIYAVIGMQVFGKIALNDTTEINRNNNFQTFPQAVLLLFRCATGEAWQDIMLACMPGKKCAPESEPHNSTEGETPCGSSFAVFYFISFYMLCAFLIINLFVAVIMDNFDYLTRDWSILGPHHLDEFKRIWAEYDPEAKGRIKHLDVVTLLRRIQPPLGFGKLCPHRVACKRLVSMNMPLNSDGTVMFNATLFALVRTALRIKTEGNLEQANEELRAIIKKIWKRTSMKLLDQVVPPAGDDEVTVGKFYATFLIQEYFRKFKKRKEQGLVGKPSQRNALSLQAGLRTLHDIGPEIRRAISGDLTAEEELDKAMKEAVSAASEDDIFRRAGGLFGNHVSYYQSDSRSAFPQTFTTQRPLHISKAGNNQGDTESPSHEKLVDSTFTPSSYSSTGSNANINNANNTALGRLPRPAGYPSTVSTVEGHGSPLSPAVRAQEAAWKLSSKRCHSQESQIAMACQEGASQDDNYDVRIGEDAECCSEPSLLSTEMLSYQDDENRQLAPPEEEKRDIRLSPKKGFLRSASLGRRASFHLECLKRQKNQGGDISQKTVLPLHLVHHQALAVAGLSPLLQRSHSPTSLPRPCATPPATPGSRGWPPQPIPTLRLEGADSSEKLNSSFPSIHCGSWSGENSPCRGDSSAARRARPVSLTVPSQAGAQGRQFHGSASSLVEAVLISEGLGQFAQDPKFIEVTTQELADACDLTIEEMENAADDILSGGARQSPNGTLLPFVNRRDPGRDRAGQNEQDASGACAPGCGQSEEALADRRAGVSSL
# T1 sequence (P13806 27-960 partner limits assumed, other chains not shown): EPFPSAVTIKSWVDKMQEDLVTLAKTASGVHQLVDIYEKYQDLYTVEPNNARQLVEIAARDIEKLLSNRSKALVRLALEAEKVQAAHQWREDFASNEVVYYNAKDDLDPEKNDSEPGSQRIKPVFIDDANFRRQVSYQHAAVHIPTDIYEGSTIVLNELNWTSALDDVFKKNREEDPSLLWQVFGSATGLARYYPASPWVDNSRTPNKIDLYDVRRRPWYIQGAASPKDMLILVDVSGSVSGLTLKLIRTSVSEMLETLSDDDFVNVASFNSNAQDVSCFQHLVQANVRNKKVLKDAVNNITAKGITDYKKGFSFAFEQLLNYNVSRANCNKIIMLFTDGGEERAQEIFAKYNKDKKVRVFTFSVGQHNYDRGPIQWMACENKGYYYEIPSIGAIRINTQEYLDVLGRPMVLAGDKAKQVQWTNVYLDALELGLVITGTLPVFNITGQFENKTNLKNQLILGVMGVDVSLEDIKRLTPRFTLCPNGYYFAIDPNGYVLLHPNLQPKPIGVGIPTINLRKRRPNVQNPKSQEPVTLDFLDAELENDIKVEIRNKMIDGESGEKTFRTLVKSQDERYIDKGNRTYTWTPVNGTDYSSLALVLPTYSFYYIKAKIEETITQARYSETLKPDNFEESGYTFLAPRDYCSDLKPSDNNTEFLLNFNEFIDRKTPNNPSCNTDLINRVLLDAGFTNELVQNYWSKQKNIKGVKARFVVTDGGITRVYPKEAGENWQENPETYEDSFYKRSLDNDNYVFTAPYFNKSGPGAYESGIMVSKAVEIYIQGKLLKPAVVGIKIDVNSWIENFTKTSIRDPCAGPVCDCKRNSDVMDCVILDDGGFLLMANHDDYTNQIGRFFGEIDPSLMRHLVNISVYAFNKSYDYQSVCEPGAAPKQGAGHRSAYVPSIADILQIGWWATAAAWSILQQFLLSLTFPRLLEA
# T1 sequence (P13806 961-1106 partner limits assumed, other chains not shown): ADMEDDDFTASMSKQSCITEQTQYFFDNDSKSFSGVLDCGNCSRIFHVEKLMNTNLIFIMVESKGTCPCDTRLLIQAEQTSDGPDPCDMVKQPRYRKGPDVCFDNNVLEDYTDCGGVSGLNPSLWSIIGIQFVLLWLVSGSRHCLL
Compound,"IC50 [1, 3] [nM]",IC50 [2] [nM],"IC50 [1, 4] [nM]"
"CC1=C(C(=O)OCCN(C)Cc2ccccc2)C(c2cccc([N+](=O)[O-])c2)C2=C(COCCS2(=O)=O)N1 (stereo not drawn) [Compound 1, 5H-[1,4]oxathiepino[6,5-b]pyridine-8-carboxylic acid, 2,3,6,9-tetrahydro-7-methyl-9-(3-nitrophenyl), 2-[methyl(phenylmethyl)amino]ethyl ester, 1,1-dioxide]",39,,
"COC(=O)C1=C(C)NC2=C(C1c1ccccc1Cl)S(=O)(=O)CCOC2 (stereo not drawn) [Compound 2, 5H-[1,4]oxathiepino[6,5-b]pyridine-8-carboxylic acid, 9-(2-chlorophenyl)-2,3,6,9-tetrahydro-7-methyl, methyl ester, 1,1-dioxide]",12,,
"CC1=C(C(=O)OCCN(C)Cc2ccccc2)C(c2ccccc2Cl)C2=C(COCCS2(=O)=O)N1 (stereo not drawn) [Compound 3, 5H-[1,4]oxathiepino[6,5-b]pyridine-8-carboxylic acid, 9-(2-chlorophenyl)-2,3,6,9-tetrahydro-7-methyl, 2-[methyl(phenylmethyl)amino]ethyl ester, 1,1-dioxide]",129,55,
"COC(=O)C1=C(C)NC2=C(C1c1cccc([N+](=O)[O-])c1)S(=O)(=O)CCOC2 (stereo not drawn) [Compound 4, 5H-[1,4]oxathiepino[6,5-b]pyridine-8-carboxylic acid, 2,3,6,9-tetrahydro-7-methyl-9-(3-nitrophenyl), methyl ester, 1,1-dioxide]",46,,
"COC(=O)C1=C(C)NC2=C(C1c1ccccc1[N+](=O)[O-])S(=O)(=O)CCOC2 (stereo not drawn) [Compound 5, 5H-[1,4]oxathiepino[6,5-b]pyridine-8-carboxylic acid, 2,3,6,9-tetrahydro-7-methyl-9-(2-nitrophenyl), methyl ester, 1,1-dioxide]",34,,
"COC(=O)C1=C(C)NC2=C(C1c1cccc(Cl)c1)S(=O)(=O)CCOC2 (stereo not drawn) [Compound 6, 5H-[1,4]oxathiepino[6,5-b]pyridine-8-carboxylic acid, 9-(3-chlorophenyl)-2,3,6,9-tetrahydro-7-methyl, methyl ester, 1,1-dioxide]",21,,
"CC1=C(C(=O)OCCN(C)Cc2ccccc2)C(c2cccc(Cl)c2)C2=C(COCCS2(=O)=O)N1 (stereo not drawn) [Compound 7, 5H-[1,4]oxathiepino[6,5-b]pyridine-8-carboxylic acid, 9-(3-chlorophenyl)-2,3,6,9-tetrahydro-7-methyl, 2-[methyl(phenylmethyl)amino]ethyl ester, 1,1-dioxide]",13,,
"CC1=C(C(=O)OCCN(C)Cc2ccccc2)C(c2ccccc2[N+](=O)[O-])C2=C(COCCS2(=O)=O)N1 (stereo not drawn) [Compound 8, 5H-[1,4]oxathiepino[6,5-b]pyridine-8-carboxylic acid, 2,3,6,9-tetrahydro-7-methyl-9-(2-nitrophenyl), 2-[methyl(phenylmethyl)amino]ethyl ester, 1,1-dioxide]",86,,
"CC1=C(C(=O)OCCOC(=O)c2ccccc2)C(c2c(F)cccc2Cl)C2=C(COCCS2(=O)=O)N1 (stereo not drawn) [Compound 10, 5H-[1,4]oxathiepino[6,5-b]pyridine-8-carboxylic acid, 9-(2-chloro-6-fluorophenyl)-2,3,6,9-tetrahydro-7-methyl-, 2-(benzoyloxy)ethyl ester, 1,1-dioxide]",,,17
"CC1=C(C(=O)OCCOC(=O)C2CCCCC2)C(c2c(F)cccc2Cl)C2=C(COCCS2(=O)=O)N1 (stereo not drawn) [Compound 11, 5H-[1,4]oxathiepino[6,5-b]pyridine-8-carboxylic acid, 9-(2-chloro-6-fluorophenyl)-2,3,6,9-tetrahydro-7-methyl-, 2-[(cyclohexylcarbonyl)oxy]ethyl ester, 1,1-dioxide]",,,96
"CC(=O)OCCOC(=O)C1=C(C)NC2=C(C1c1c(F)cccc1Cl)S(=O)(=O)CCOC2 (stereo not drawn) [Compound 12, 5H-[1,4]oxathiepino[6,5-b]pyridine-8-carboxylic acid, 9-(2-chloro-6-fluorophenyl)-2,3,6,9-tetrahydro-7-methyl-, 2-(acetyloxy)ethyl ester, 1,1-dioxide]",,,582
"CC1=C(C(=O)OCCOC(=O)C2CC2)C(c2c(F)cccc2Cl)C2=C(COCCS2(=O)=O)N1 (stereo not drawn) [Compound 13, 5H-[1,4]oxathiepino[6,5-b]pyridine-8-carboxylic acid, 9-(2-chloro-6-fluorophenyl)-2,3,6,9-tetrahydro-7-methyl-, 2-[(cyclopropylcarbonyl)oxy]ethyl ester, 1,1-dioxide]",,,418
"CC1=C(C(=O)OCCOC(=O)C(C)C)C(c2c(F)cccc2Cl)C2=C(COCCS2(=O)=O)N1 (stereo not drawn) [Compound 14, 5H-[1,4]oxathiepino[6,5-b]pyridine-8-carboxylic acid, 9-(2-chloro-6-fluorophenyl)-2,3,6,9-tetrahydro-7-methyl-, 2-(2-methyl-1-oxopropoxy)ethyl ester, 1,1-dioxide]",,,60
"CC1=C(C(=O)OCCO)C(c2ccccc2Cl)C2=C(COCCS2(=O)=O)N1 (stereo not drawn) [Compound 15, 5H-[1,4]oxathiepino[6,5-b]pyridine-8-carboxylic acid, 9-(2-chlorophenyl)-2,3,6,9-tetrahydro-7-methyl-, 2-hydroxyethyl ester, 1,1-dioxide]",,,20000
"CC1=C(C(=O)OCCCOC(=O)c2ccccc2)C(c2ccccc2Cl)C2=C(COCCS2(=O)=O)N1 (stereo not drawn) [Compound 16, 5H-[1,4]oxathiepino[6,5-b]pyridine-8-carboxylic acid, 9-(2-chlorophenyl)-2,3,6,9-tetrahydro-7-methyl-, 3-(benzoyloxy)propyl ester, 1,1-dioxide]",,,40
"CC1=C(C(=O)OCCOC(=O)C(C)C)C(c2ccccc2Cl)C2=C(COCCS2(=O)=O)N1 (stereo not drawn) [Compound 17, 5H-[1,4]oxathiepino[6,5-b]pyridine-8-carboxylic acid, 9-(2-chlorophenyl)-2,3,6,9-tetrahydro-7-methyl-, 2-(2-methyl-1-oxopropoxy)ethyl ester, 1,1-dioxide]",,,36
"CC1=C(C(=O)OCc2oc(=O)oc2-c2ccccc2)C(c2cccc(Cl)c2Cl)C2=C(COCCS2(=O)=O)N1 (stereo not drawn) [Compound 18, 5H-[1,4]oxathiepino[6,5-b]pyridine-8-carboxylic acid, 9-(2,3-dichlorophenyl)-2,3,6,9-tetrahydro-7-methyl-, (2-oxo-5-phenyl-1,3-dioxol-4-yl)methyl ester, 1,1-dioxide]",,,21
"CC1=C(C(=O)OCc2oc(=O)oc2C)C(c2cccc(Cl)c2Cl)C2=C(COCCS2(=O)=O)N1 (stereo not drawn) [Compound 19, 5H-[1,4]oxathiepino[6,5-b]pyridine-8-carboxylic acid, 9-(2,3-dichlorophenyl)-2,3,6,9-tetrahydro-7-methyl-, (5-methyl-2-oxo-1,3-dioxol4-yl)methyl ester, 1,1-dioxide]",,,18
CC1=C(C(=O)OCCO)C(c2c(F)cccc2Cl)C2=C(COCCS2(=O)=O)N1 (stereo not drawn) [Compound 20],,,4360
CC1=C(C(=O)OCCCO)C(c2ccccc2Cl)C2=C(COCCS2(=O)=O)N1 (stereo not drawn) [Compound 21],,,560
